Series [1] can be described thus: Metal chelating activity assessed as Cu2+-compound complex formation by measuring increase in absorbance incubated for 2 hrs in the presence of CuCl2 by UV-Vis spectra analysis.
Series [2] has as its system PC-12. Kind of series: Cytotoxicity against rat PC-12 cells assessed as reduction in cell viability upto 50 uM incubated for 2 hrs by MTT assay. In kind it is toxicity, cell-based. The conditions noted are these: pc-12, 2 h. For orientation: Tetrazolium dyes change colour on reduction, which living cells bring about.
Series [3] deals with BV-2. Put plainly: Inhibition of LPS-induced ROS production in mouse BV-2 cells at 2.5 uM preincubated for 30 mins followed by LPS-stimulation and measured after 30 mins by DCFH-DA based fluorescence microplate reader analysis relative to control. In kind it is functional. The conditions noted are these: BV-2, 1 h, time 60 min.
Series [4] concerns PC-12. Put plainly: Neuroprotective activity against H2O2-induced cell damage in rat PC-12 cells assessed as increase in cell viability at 50 uM preincubated for 2 hrs followed by H2O2 addition and measured after 24 hrs by MTT assay (reference value: 50.3%). In kind it is functional. The conditions noted are these: time 26 hrs.
In series [5] the target is T1, Amine oxidase [flavin-containing] A (Homo sapiens, UniProt P21397).
T1 sequence (P21397 whole entry): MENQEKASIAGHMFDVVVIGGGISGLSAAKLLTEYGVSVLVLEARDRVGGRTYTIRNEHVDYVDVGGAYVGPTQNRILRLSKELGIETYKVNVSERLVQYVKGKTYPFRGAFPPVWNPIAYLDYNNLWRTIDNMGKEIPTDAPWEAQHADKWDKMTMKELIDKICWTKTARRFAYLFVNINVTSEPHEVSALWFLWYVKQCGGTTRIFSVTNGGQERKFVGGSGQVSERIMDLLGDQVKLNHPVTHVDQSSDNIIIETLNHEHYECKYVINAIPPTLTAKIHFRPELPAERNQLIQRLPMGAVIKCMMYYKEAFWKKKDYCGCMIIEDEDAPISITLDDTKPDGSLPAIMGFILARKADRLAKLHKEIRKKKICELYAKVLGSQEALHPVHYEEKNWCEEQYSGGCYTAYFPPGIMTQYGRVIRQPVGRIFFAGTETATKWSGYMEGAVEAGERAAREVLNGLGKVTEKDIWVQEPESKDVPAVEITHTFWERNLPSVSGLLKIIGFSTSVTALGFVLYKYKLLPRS
Put plainly: Inhibition of MAO-A (unknown origin) using kynuramine as substrate at 10 uM preincubated for 30 mins followed by substrate addition and measured after 30 mins by fluorescence based analysis relative to control. The conditions noted are these: 0.5 h, time 60 min.

For series [6], the system named is BV-2. Put plainly: Anti-neuroinflammatory activity in mouse BV-2 cells assessed as inhibition of LPS-induced TNF-alpha production preincubated for 30 mins followed by LPS stimulation and measured after 24 hrs by ELISA analysis. The conditions noted are these: dose 0.5-10 µM, time 24.5 hrs. The series is classed as functional, cell-based. On the technique in general: In an ELISA, binding on a coated surface is turned into a signal by an enzyme label.

Series [7] is described as follows: Permeability of the compound in porcine brain incubated for 18 hrs by PAMPA-BBB assay. In kind it is ADME, Sus scrofa. The conditions noted are these: pig, read-out: permeability. A general note: The PAMPA barrier holds no transporters, so it reflects passive diffusion.
For series [8], the system named is Mus musculus. Kind of series: Anti-parkinson's disease activity in MPTP-induced C57BL/6C mouse model assessed as reduction in total time required to reach the bottom of pole at 53.5 mg/kg, IG preadministered with MPTP for 5 days followed by compound administration for 3 weeks and measured 1 hrs post last dose by pole test. The series is classed as functional, organism-based.

Series [9] in a line: Metal chelating activity assessed as Fe2+-compound complex formation by measuring red shift incubated for 2 hrs in the presence of FeSO4 by UV-Vis spectra analysis.
Series [10] concerns BV-2. Kind of series: Inhibition of LPS-induced NFkappaB activation in mouse BV-2 cells assessed as reduction in IkappaBalpha phosphorylation at 1 to 10 uM preincubated for 30 mins followed by LPS-stimulation and measured after 16 hrs by Western blot analysis. The series is classed as cell-based. The following applies: dose 1-10 µM, time 16.5 hrs.
The subject of series [11] is Mus musculus. Kind of series: In vivo inhibition of MAO-B in MPTP-induced C57BL/6C parkinson's mouse model assessed as increase in DA level in corpus striatum at 53.5 mg/kg, IG preadministered with MPTP for 5 days followed by compound administration for 3 weeks and measured 1 hrs post last dose by HPLC-ECD method. In kind it is functional, organism-based.
The target in series [12] is T2, Amine oxidase [flavin-containing] B (Homo sapiens, UniProt P27338).
T2 sequence (P27338 whole entry): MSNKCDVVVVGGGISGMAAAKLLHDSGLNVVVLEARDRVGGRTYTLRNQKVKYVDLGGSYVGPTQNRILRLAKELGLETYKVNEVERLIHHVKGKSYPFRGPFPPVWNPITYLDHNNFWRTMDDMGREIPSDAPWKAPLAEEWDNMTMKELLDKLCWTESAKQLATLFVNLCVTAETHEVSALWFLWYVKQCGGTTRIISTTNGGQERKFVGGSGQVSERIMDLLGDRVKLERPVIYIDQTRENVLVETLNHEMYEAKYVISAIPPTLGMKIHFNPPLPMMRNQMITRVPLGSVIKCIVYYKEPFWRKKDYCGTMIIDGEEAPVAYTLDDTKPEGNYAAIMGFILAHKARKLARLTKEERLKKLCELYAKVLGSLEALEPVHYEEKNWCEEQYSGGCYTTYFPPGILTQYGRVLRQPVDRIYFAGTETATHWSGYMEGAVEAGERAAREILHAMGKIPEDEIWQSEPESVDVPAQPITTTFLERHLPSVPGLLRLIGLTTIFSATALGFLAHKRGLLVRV
Kind of series: Competitive inhibition of MAO-B (unknown origin) using kynuramine as substrate assessed as increase in Km at 0.007 to 0.028 uM by Lineweaver-Burk plot analysis. The conditions noted are these: dose 0.007-0.028 µM.

Series [13] concerns the target T2, Amine oxidase [flavin-containing] B. Kind of series: Competitive inhibition of MAO-B (unknown origin) using kynuramine as substrate assessed as inhibition constant by Lineweaver-Burk plot analysis.
Series [14] shares this target.
Description: Inhibition of MAO-B (unknown origin) using kynuramine as substrate preincubated for 30 mins followed by substrate addition and measured after 30 mins by fluorescence based analysis
Series [15] deals with BV-2. Kind of series: Inhibition of LPS-induced ROS production in mouse BV-2 cells at 10 uM preincubated for 30 mins followed by LPS-stimulation and measured after 30 mins by DCFH-DA based fluorescence microplate reader analysis relative to control. The series is classed as functional. The conditions noted are these: BV-2, 1 h, time 60 min.
Series [16] deals with PC-12. Kind of series: Neuroprotective activity against H2O2-induced cell damage in rat PC-12 cells assessed as increase in cell viability at 10 uM preincubated for 2 hrs followed by H2O2 addition and measured after 24 hrs by MTT assay (reference value: 50.3%). In kind it is functional. The following applies: time 26 hrs.
A short description of series [17]: Metal chelating activity assessed as Fe2+-compound complex formation by measuring increase in absorbance incubated for 2 hrs in the presence of FeSO4 by UV-Vis spectra analysis.
Series [18] concerns Mus musculus. Put plainly: Anti-parkinson's disease activity in MPTP-induced C57BL/6C mouse model assessed as decrease in MDA level in corpus striatum at 53.5 mg/kg, IG preadministered with MPTP for 5 days followed by compound administration for 3 weeks and measured 1 hrs post last dose by HPLC-ECD method. The series is classed as functional, organism-based.
The target in series [19] is T2, Amine oxidase [flavin-containing] B. Kind of series: Competitive inhibition of MAO-B (unknown origin) using kynuramine as substrate assessed as […] at 0.007 to 0.028 uM by Lineweaver-Burk plot analysis. The conditions noted are these: dose 0.007-0.028 µM.
For series [20], the system named is Mus musculus. Put plainly: Anti-parkinson's disease activity in MPTP-induced C57BL/6C mouse model assessed as reduction in time required to turn the head to 180 degree at 53.5 mg/kg, IG preadministered with MPTP for 5 days followed by compound administration for 3 weeks and measured 1 hrs post last dose by pole test. In kind it is functional, organism-based.

SMILES strings stand for the structures. Activity calls are given as the source filed them. The calls are words filed in the database; no cut-off is given here.

Broadly, the inhibition is the share of the control response that was lost under treatment. Usually Ki stands for a dissociation constant, usually derived from enzyme kinetics or from competition with a known ligand. For orientation: IC50 means the concentration needed to halve the response being measured. `Oc1cc(OCc2ccc(F)cc2)ccc1CNc1ccccc1`: the result (in [1]; in the series with Mus musculus [8]; in [9]; in series [17]; in the series on Mus musculus [18]; in the series on Mus musculus [20]) was Active. For the same molecule, the Activity entry in the series on PC-12 [2] is “Non-Toxic”; in the series with PC-12 [4], 77.2%; with BV-2 [6], “Dose-Dependent Effect”; with PC-12 [16], 69.6%. In the series on BV-2 [3], this molecule displayed an inhibition at 2.5 µM of 21.2%. Further, the figures for the inhibition at 10 µM (in series [5]; in the series on BV-2 [15]) were 43.7% and 99%, respectively. Moreover, the Papp at 18 h in [7] came out at 8.62 ×10⁻⁶ cm/s. The inhibition result in the series on BV-2 [10] and in the series on Mus musculus [11] was “Active” throughout. Besides, the “inhibition (INH)” value in series [12] and in series [19] was “Active” throughout. The Ki in series [13] was 18 nM. For the same molecule, the IC50 in series [14] stood at 14 nM.

Values taken from ChEMBL document CHEMBL5331103, “Discovery of novel 2-hydroxyl-4-benzyloxybenzyl aniline derivatives as potential multifunctional agents for the treatment of Parkinson's disease” (Eur J Med Chem, 2023).
